From ChEMBL document CHEMBL5154737, “Semisynthesis and biological evaluation of (+)-sclerotiorin derivatives as antitumor agents for the treatment of hepatocellular carcinoma” (Eur J Med Chem, 2022)
Active and inactive are the calls of the source. The rule behind the calls is not given here.

How the values were obtained:
[1] = Cmax in Sprague-Dawley rat at 20 mg/kg, ip measured for 0.03 to 24 hrs by UPLC-MS analysis; assay type: ADME, organism-based; design: time lower 0.03 hrs, dose 20 mg/kg, time upper 24 hrs, route ip; conditions: in vivo
[2] = Toxicity in ICR mouse assessed as change in white blood cell count at 100 mg/kg, ip qd (reference value: 4.0 10^9/L); assay type: organism-based; conditions: in vivo
[3] = Toxicity in ICR mouse assessed as change in lymphocyte count at 100 mg/kg, ip qd (reference value: 3.0 10^9/L); assay type: organism-based; conditions: in vivo
[4] = Toxicity in ICR mouse assessed as change in monocyte count at 100 mg/kg, ip qd (reference value: 0.1 10^9/L); assay type: organism-based; conditions: in vivo
[5] = Toxicity in ICR mouse assessed as change in neutrophile granulocytes level at 100 mg/kg, ip qd (reference value: 0.9 10^9/L); assay type: organism-based; conditions: in vivo
[6] = Toxicity in ICR mouse assessed as change in neutrophile granulocyte level at 100 mg/kg, ip qd (reference value: 21.6 %); assay type: organism-based; conditions: in vivo
[7] = Toxicity in ICR mouse assessed as change in red blood cell count at 100 mg/kg, ip qd (reference value: 7.05 10^12/L); assay type: organism-based; conditions: in vivo
[8] = Toxicity in ICR mouse assessed as change in platelet count at 100 mg/kg, ip qd (reference value: 742 10^9/L); assay type: organism-based; conditions: in vivo
[9] = Toxicity in ICR mouse assessed as change in platelet distribution width at 100 mg/kg, ip qd (reference value: 16.7); assay type: organism-based; conditions: in vivo
[10] = Toxicity in ICR mouse assessed as change in plateletcrit level at 100 mg/kg, ip qd (reference value: 0.415 %); assay type: organism-based; conditions: in vivo
[11] = tested on: Bel-7402; assay: Cytotoxicity against human Bel-7402 cells assessed as inhibition rate at 5 uM by MTT assay; assay type: functional, cell-based; conditions: time 72.0 hrs, TDE = time-dependent effect
[12] = tested on: Bel-7402; assay: Cytotoxicity against human Bel-7402 cells assessed as inhibition rate at 5 uM incubated for 72 hrs by MTT assay relative to control; assay type: functional; design: scale not given: the % may be the effect or the level left
[13] = tested on: Bel-7402; assay: Cytotoxicity against human Bel-7402 cells assessed as increase LDH release at 2.5 to 5 uM by LDH assay; assay type: functional, cell-based; conditions: dose 2.5-5 µM, time 24-48 hrs, TDE = time-dependent effect
[14] = tested on: Bel-7402; assay: Cytotoxicity against human Bel-7402 cells assessed as LDH release at 2.5 uM incubated for 24 hrs by LDH assay; assay type: functional, cell-based
[15] = tested on: Bel-7402; assay: Induction of apoptosis in human Bel-7402 cells assessed as late apoptotic cells at 0.313 uM incubated for 24 hrs by Annexin V and dead cell assay kit (reference value: 4.45 %); assay type: functional
[16] = tested on: Bel-7402; assay: Induction of apoptosis in human Bel-7402 cells assessed as dead cells at 0.313 uM incubated for 24 hrs by Annexin V and dead cell assay kit (reference value: 0.80 %); assay type: functional
[17] = tested on: Bel-7402; assay: Induction of apoptosis in human Bel-7402 cells assessed as late apoptotic cells at 1.25 uM incubated for 24 hrs by Annexin V and dead cell assay kit (reference value: 4.45 %); assay type: functional
[18] = tested on: Bel-7402; assay: Induction of apoptosis in human Bel-7402 cells assessed as late apoptotic cells at 2.5 uM incubated for 24 hrs by Annexin V and dead cell assay kit (reference value: 4.45 %); assay type: functional
[19] = tested on: Bel-7402; assay: Induction of apoptosis in human Bel-7402 cells assessed as dead cells at 2.5 uM incubated for 24 hrs by Annexin V and dead cell assay kit (reference value: 0.80 %); assay type: functional
[20] = tested on: Bel-7402; assay: Induction of apoptosis in human Bel-7402 cells assessed as late apoptotic cells at 5 uM incubated for 24 hrs by Annexin V and dead cell assay kit (reference value: 4.45 %); assay type: functional
[21] = tested on: Bel-7402; assay: Induction of apoptosis in human Bel-7402 cells assessed as dead cells at 5 uM incubated for 24 hrs by Annexin V and dead cell assay kit (reference value: 0.80 %); assay type: functional
[22] = tested on: Bel-7402; assay: Induction of apoptosis in human Bel-7402 cells assessed as increase in cleaved PARP upto 2.5 uM incubated for 24 hrs by Western blot analysis; assay type: functional, cell-based
[23] = tested on: Bel-7402; assay: Induction of apoptosis in human Bel-7402 cells assessed as increase in cleaved caspase-9 upto 2.5 uM incubated for 24 hrs by Western blot analysis; assay type: functional, cell-based
[24] = tested on: Bel-7402; assay: Antitumor activity against human Bel-7402 cells xenografted in BALB/c nude mouse assessed as tumor growth inhibition at 20 mg/kg, ip bid for 14 days measured every 2 days relative to control; assay type: functional; conditions: Bel-7402, 336 h, time 14 day, read-out: TGI
[25] = tested on: Bel-7402; assay: Antitumor activity against human Bel-7402 cells xenografted in BALB/c nude mouse assessed as tumor growth inhibition at 10 mg/kg, ip bid measured every 2 days for 14 days relative to control; assay type: functional; conditions: Bel-7402, 336 h, time 14 day, read-out: TGI
[26] = tested on: Bel-7402; assay: Antitumor activity against human Bel-7402 cells xenografted in BALB/c nude mouse assessed as tumor growth inhibition at 20 mg/kg, ip qd measured every 2 days for 14 days relative to control; assay type: functional; conditions: Bel-7402, 336 h, time 14 day, read-out: TGI
[27] = Toxicity in BALB/c nude mouse xenografted with Bel-7402 cells assessed as change in body weight at 20 mg/kg, ip qd measured every 2 days for 14 days; assay type: organism-based; conditions: in vivo, 336 h, time 14 day
[28] = Chronic toxicity in ICR mouse assessed as effect on heart morphology at 100 mg/kg, ip qd measured after 26 days by H and E staining method; assay type: organism-based; conditions: in vivo, 624 h, time 26 day
[29] = Chronic toxicity in ICR mouse assessed as effect on kidney morphology at 100 mg/kg, ip qd measured after 26 days by H and E staining method; assay type: organism-based; conditions: in vivo, 624 h, time 26 day
[30] = tested on: Bel-7402; assay: Induction of AKT degradation in human Bel-7402 cells at 2.5 uM incubated for 24 hrs in presence of Z-vad-fmk by Western blot analysis; assay type: cell-based
[31] = tested on: Bel-7402; assay: Induction of ERK degradation in human Bel-7402 cells at 2.5 uM incubated for 24 hrs in presence of choro-quine by Western blot analysis; assay type: cell-based
[32] = Biodistribution in whole body of mouse bearing tumor measured after 1 hr by ICG dye based fluorescence imaging; assay type: ADME, organism-based; conditions: in vivo
[33] = Biodistribution in tumor of mouse bearing tumor measured after 4 hr by ICG dye based fluorescence imaging; assay type: ADME, organism-based, Neoplasm; conditions: in vivo
[34] = Sub-chronic toxicity in ICR mouse assessed as body weight change at 100 mg/kg/day, ip for 26 days; assay type: organism-based; conditions: in vivo, 624 h, time 26 day
[35] = Sub-chronic toxicity in ICR mouse assessed as change in amount of food intake at 100 mg/kg/day, ip for 26 days; assay type: organism-based; conditions: in vivo, 624 h, time 26 day
[36] = tested on: Bel-7402; assay: Induction of apoptosis in human Bel-7402 cells assessed as late apoptotic cells at 2.5 uM incubated for 24 hrs by Annexin V and Dead cell kit assay (reference value: 3.85 %); assay type: functional
[37] = tested on: Bel-7402; assay: Induction of apoptosis in human Bel-7402 cells assessed as necrotic cells at 2.5 uM incubated for 24 hrs by Annexin V and Dead cell kit assay (reference value: 1.6 %); assay type: functional
[38] = tested on: Bel-7402; assay: Induction of apoptosis in human Bel-7402 cells assessed as early apoptotic cells at 2.5 uM incubated for 24 hrs in presence of U0126 by Annexin V and Dead cell kit assay (reference value: 3.7 %); assay type: functional

CC[C@H](C)/C=C(C)/C=C/C1=CC2=C(Cl)C(=O)[C@](C)(O)C(=O)C2=CN1Cc1ccc(OC(F)(F)F)cc1
Cmax [1]: 5590 ng/mL | Activity [2]: 3.4 10^9/L | Activity [3]: 1.7 10^9/L | Activity [4]: 0.3 10^9/L | Activity [5]: 1.4 10^9/L | Activity [6]: 41.6% | Activity [7]: 8.37 10^12/L | Activity [8]: 608 10^9/L | Activity [9]: 18.3 | Activity [10]: 0.407% | Activity [11]: Tde | Activity [12]: 90.13% | Activity [13]: Tde | Activity [14]: Active | Activity [15]: 1.6% | Activity [16]: 0.35% | Activity [17]: 5.75% | Activity [18]: 35.25% | Activity [19]: 3.35% | Activity [20]: 75.55% | Activity [21]: 8.15% | Activity [22]: Active | Activity [23]: Active | inhibition in vivo at 20 mg/kg [24]: 52.5% | inhibition in vivo at 10 mg/kg [25]: 34.6% | inhibition in vivo at 20 mg/kg [26]: 18.3% | Activity [27]: Non-Toxic | Activity [28]: Non-Toxic | Activity [29]: Non-Toxic | Activity [30]: Active | Activity [31]: Active | Activity [32]: Active | Activity [33]: Active | Activity [34]: Non-Toxic | Activity [35]: Non-Toxic | Activity [36]: 37.9% | Activity [37]: 11.15% | Activity [38]: 26.1%
